# Patent US4338331A, “Isoindoline derivative and a therapeutic composition thereof” (priority 1979, dated 1982)
# Values joined by “and” are separate entries in the source; they are usually repeats but may differ in a detail not shown here. Equal values may be shown once. “Also recorded” adds a separate entry of the source.
# Assays:
# female Wistar rats [1] = test: Effect on spontaneous diuresis (TABLE 3); type: in vivo, Wistar rat; conditions: 5 mg/kg oral; for Excreted sodium/potassium ratio: 12 h; for Potassium excretion / Sodium excretion: spontaneous diuresis
# Protocol: These investigations were carried out on Wistar rats of both sexes, having a body weight which is specified in each case in the relative tables, which compare the results with Indapamide. Both the CM/1 and the Indapamide were administered orally after being suitably dissolved in the following solvent:
# (§1) The controls were treated with an equal volume of solvent. The experiments were carried out on animals which had regularly fasted for at least 12 hours, but had free access to water.
# (§2) The sodium and potassium in the urine were determined by a photometric method.
# Finally, the effect on the new product of spontaneous diuresis was determined.
# These investigations were carried out on 15 female Wistar rats having a body weight varying from 230 to 260 g, and divided at random into three groups of 5. The animals were kept in individual metabolic cages overnight for a period of 12 hours in order to collect the urine spontaneously excreted. One group was treated as usual with 1 ml/kg of solvent by means of a gastric probe, and the other two were treated respectively with 5 mg/kg of Indapamide and 5 mg/kg of CM/1. The sodium and potassium were analysed as usual in the urine collected.
# female Wistar rats [2] = test: Diuretic and saluretic activity: excretion of an aqueous saline load (TABLE 1); type: in vivo, Wistar rat; conditions: 5 mg/kg oral
# Protocol: Both the CM/1 and the Indapamide were administered orally after being suitably dissolved in the following solvent:
# as §1, §2
# The effect on the excretion of an aqueous saline load was first checked. 18 female Wistar rats were used divided into three groups, one of 8 and two of 5, and these were treated in the following manner:
# GROUP A: CONTROLS 1 ml of solvent made up to 50 ml with 0.9% sodium chloride solution, administered by gastric probe, per kg of body weight (=50 ml/kg in terms of volume);
# GROUP B: INDAPAMIDE 5 mg/kg in 1 ml/kg of solvent made up to 50 ml/kg with sodium chloride solution, administered by gastric probe;
# GROUP C: CM/1,5 mg/kg using the same method as for the Indapamide.
# The rats were placed immediately in individual metabolic cages for collecting the urine during the three hours subsequent to the load. The quantity of urine excreted is given as a percentage of the quantity administered. The sodium and potassium are expressed in mEq/3h.
# Values of P less than 0.05 have been considered significant.
# [3] = system: rat with spontaneous hypertension (SHR); test: Hypotensive activity: arterial pressure of the rat with spontaneous hypertension (TABLE 4); type: in vivo, SHR male rats; conditions: 1.2 mg/kg/day oral
# Protocol: The effects of subacute oral treatment with CM/1 on the arterial pressure of the rat with spontaneous hypertension (SHR) were followed on 10 genetically hypertensive (SHR) male rats obtained from Charles River. They were divided at random into two groups of 5 each, and treated in the following manner:
# GROUP A: CONTROLS--10% gum arabic, 5 ml/kg/day by oral administration using a gastro-oesophageal probe;
# GROUP B: CM/1--1.2 mg/5 ml of gum arabic/kg/day by oral administration using a gastro-oesophageal probe.
# The treatment was carried out for 28 consecutive days. The arterial pressure was recorded at regular intervals by the bloodless method, using the "BP Recorder 8005" apparatus of "W+W Electronic".
# The measurement was made in the following manner: the tail of the animals was carefully depilated and then inserted into a sleeve of suitable diameter connected by a tube to a pump and a pressure gauge. The tail was then inserted into a circular transducer, which was connected to a pulse counter. When the apparatus was switched on, the pressure increased in the sleeve until the blood flow was arrested.
# The pressures were now read from the pressure gauge.
# Before beginning the experiments, the animals had been subjected for a week to this procedure in order to accustom them to handling.
# [4] = saline load, mean ± standard error, n = 5
# [5] = individual rats, base of rats 1-5: 235, 215, 260, 265, 250
smiles,measurement,setting,value
"CC1c2ccccc2CN1NC(=O)c1ccc(Cl)c(S(N)(=O)=O)c1 (centres unmarked) [CM/1, 1-methyl-2-(3'-sulphamyl-4'-chlorobenzamido)-isoindoline]",diuretic action,female Wistar rats [1],"marked diuretic action, which is stronger in the case of the product CM/1"
same,"ratio of sodium to potassium excretion, CM/1 compared with Indapamide",female Wistar rats [1],"higher in the group treated with the product CM/1, and the difference reaches statistical significance"
same,sodium and potassium excretion,female Wistar rats [1],increased
same,Excreted sodium/potassium ratio,female Wistar rats [1]; individual rats,1.651 and 2.262 and 2.277 and 2.188 and 1.746
same,Excreted sodium/potassium ratio,"female Wistar rats [1]; mean ± standard error, n = 5",2.024 ± 0.134
same,ml of urine collected in 12 hours,female Wistar rats [1]; individual rats,10.5 mL and 17.5 mL and 21.0 mL and 16.6 mL and 15.0 mL
same,ml of urine collected in 12 hours,"female Wistar rats [1]; mean ± standard error, n = 5",16.12 ± 1.71 mL
same,Potassium excretion,female Wistar rats [1]; individual rats,3.708 mEq/12h and 3.042 mEq/12h and 3.911 mEq/12h and 3.508 mEq/12h and 3.430 mEq/12h
same,Sodium excretion,female Wistar rats [1]; individual rats,6.123 mEq/12h and 6.880 mEq/12h and 8.906 mEq/12h and 7.675 mEq/12h and 5.989 mEq/12h
same,Potassium excretion,"female Wistar rats [1]; mean ± standard error, n = 5",3.5198 ± 0.145 mEq/12h
same,Sodium excretion,"female Wistar rats [1]; mean ± standard error, n = 5",7.114 ± 0.539 mEq/12h
same,"diuretic and saluretic effect, CM/1 compared with Indapamide",female Wistar rats [2],considerably greater
same,"Urine excretion of load in percent of quantity administered (cumulative excretion), 1 hour",female Wistar rats [2]; individual rats,16.7% and 14.8% and 11.5% and 9.1% and 12.9%
same,"Urine excretion of load in percent of quantity administered (cumulative excretion), 2 hours",female Wistar rats [2]; individual rats,68.3% and 32.2% and 48.5% and 64.5% and 48.7%
same,"Urine excretion of load in percent of quantity administered (cumulative excretion), 3 hours",female Wistar rats [2]; individual rats,108.8% and 94.5% and 109.2% and 94.8% and 90.4%
same,"Urine excretion of load in percent of quantity administered (cumulative excretion), 1 hour","female Wistar rats [2]; mean ± standard error, n = 5",13.0 ± 1.31%
same,"Urine excretion of load in percent of quantity administered (cumulative excretion), 2 hours","female Wistar rats [2]; mean ± standard error, n = 5",52.44 ± 6.46%
same,"Urine excretion of load in percent of quantity administered (cumulative excretion), 3 hours","female Wistar rats [2]; mean ± standard error, n = 5",99.54 ± 3.93% and 99.5%
same,diuretic and saluretic effect,female Wistar rats [2]; relative to the controls,significant diuretic and saluretic effect relative to the controls
same,ratio of the sodium to the potassium excreted during the 3 hours,female Wistar rats [2]; saline load,5.91
same,Potassium excretion,"female Wistar rats [2]; saline load, individual rats",0.297 mEq/3h and 0.310 mEq/3h and 0.276 mEq/3h and 0.280 mEq/3h and 0.284 mEq/3h
same,Sodium excretion,"female Wistar rats [2]; saline load, individual rats",1.81 mEg/3h and 1.77 mEg/3h and 1.56 mEg/3h and 1.68 mEg/3h and 1.73 mEg/3h
same,Potassium excretion,female Wistar rats [2]; [4],0.289 ± 0.062 mEq/3h
same,Sodium excretion,female Wistar rats [2]; [4],1.71 ± 0.043 mEg/3h
same,excreted sodium and potassium,female Wistar rats [2]; versus controls,significantly higher than the controls
same,"Systolic arterial pressure measured bloodlessly, 7th day of treatment",[3]; [5],210 mm Hg and 205 mm Hg and 245 mm Hg and 225 mm Hg
same,"Systolic arterial pressure measured bloodlessly, 14th day of treatment",[3]; [5],195 mm Hg and 215 mm Hg and 235 mm Hg and 200 mm Hg and 220 mm Hg
same,"Systolic arterial pressure measured bloodlessly, 21st day of treatment",[3]; [5],195 mm Hg and 210 mm Hg and 220 mm Hg and 180 mm Hg
same,"Systolic arterial pressure measured bloodlessly, 28th day of treatment",[3]; [5],185 mm Hg and 210 mm Hg and 205 mm Hg
same,"Systolic arterial pressure measured bloodlessly, 7th day of treatment","[3]; mean, n = 5, base 245.0 ± 9.08",219.0 ± 7.31 mm Hg
same,"Systolic arterial pressure measured bloodlessly, 14th day of treatment","[3]; mean, n = 5, base 245.0 ± 9.08",213.0 ± 7.17 mm Hg
same,"Systolic arterial pressure measured bloodlessly, 21st day of treatment","[3]; mean, n = 5, base 245.0 ± 9.08",203.0 ± 7.00 mm Hg
same,"Systolic arterial pressure measured bloodlessly, 28th day of treatment","[3]; mean, n = 5, base 245.0 ± 9.08",198.0 ± 5.38 mm Hg
same,maximum reduction of the systolic arterial pressure,[3]; recording on the 28th day,20%
same,anti-hypertensive activity,"[3]; SHR, 28 days, 1.2 mg/kg/day",significantly reduces the systolic arterial pressure; also recorded: shows anti-hypertensive activity
